Laboratory results reported in patent publication US20060069132A1, “Azolecarboxamide herbicides” (priority 2004, published 2006).

Experiments:
[1] = tested on: morningglory; assay: Test B pre-/postemergence herbicide test; format: in vivo, Ipomoea coccinea
Procedure, shortened: (§1)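 Visual rating, 0 (no effect) to 100 (complete control), versus untreated controls after 13–15 d in greenhouse. Pre- and postemergence applications (postemergence plants 2–18 cm, 1–4 leaves); flooded paddy arm at 2-leaf stage. Compounds in non-phytotoxic solvent plus surfactant.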

[2] = tested on: corn; assay: Test B pre-/postemergence herbicide test; format: in vivo, Zea mays
Procedure, shortened: (§2)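 Seeds were planted and treated preemergence with compounds formulated in a non-phytotoxic solvent mixture containing surfactant, while plants at the 1- to 4-leaf stage (2 to 18 cm) received postemergence sprays. Flooded paddy plants were grown to the 2-leaf stage. After 13 to 15 days in a greenhouse, injury was visually rated 0–100 against untreated controls.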

[3] = tested on: rice; assay: Test B flooded paddy test; format: in vivo, Oryza sativa; settings: 1000 g ai/ha, visual rating, scale 0 to 100 (0 no effect, 100 complete control), 13 to 15 days
Procedure, shortened: (§3)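 Visual ratings, 0 (no effect) to 100 (complete control), made versus controls after 13–15 d greenhouse. Paddy plants treated at 2-leaf stage; postemergence plants at 1- to 4-leaf stage, 2–18 cm tall.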

[4] = tested on: barnyardgrass; assay: Test B pre-/postemergence herbicide test; format: in vivo, Echinochloa crus-galli
Procedure, shortened: as §1

[5] = tested on: cocklebur; assay: Test B pre-/postemergence herbicide test; format: in vivo, Xanthium strumarium
Procedure, shortened: as §1

[6] = tested on: wild oat; assay: Test B postemergence herbicide test; format: in vivo, Avena fatua; settings: scale 0 (no effect) to 100 (complete control)
Procedure, shortened: (§4)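 After treating 2-leaf paddy plants or 2–18 cm postemergence plants (1 to 4 leaves) with formulated chemical, researchers kept them in a greenhouse for 13–15 days. Effects were judged visually versus controls: 0 indicates none, 100 total control.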

[7] = tested on: lambsquarters; assay: Test B pre-/postemergence herbicide test; format: in vivo, Chenopodium album
Procedure, shortened: as §2

[8] = tested on: pigweed; assay: Test B pre-/postemergence herbicide test; format: in vivo, Amaranthus retroflexus
Procedure, shortened: as §2

[9] = tested on: giant foxtail; assay: Test B pre-/postemergence herbicide test; format: in vivo, Setaria faberi
Procedure, shortened: as §2

[10] = tested on: velvetleaf; assay: Test B pre-/postemergence herbicide test; format: in vivo, Abutilon theophrasti
Procedure, shortened: as §2

[11] = tested on: wheat; assay: Test B postemergence herbicide test; format: in vivo, Triticum aestivum; design: key to Wheat plant response rating: 0 = no effect, 100 = complete control; settings: scale 0 (no effect) to 100 (complete control); for Wheat plant response rating: postemergence, visual rating
Procedure, shortened: as §4

[12] = tested on: barnyardgrass; assay: Test B flooded paddy test; format: in vivo, Echinochloa crus-galli; settings: 1000 g ai/ha, visual rating, scale 0 to 100 (0 no effect, 100 complete control), 13 to 15 days
Procedure, shortened: as §3

[13] = tested on: large crabgrass; assay: Test B pre-/postemergence herbicide test; format: in vivo, Digitaria sanguinalis
Procedure, shortened: as §2

[14] = tested on: Surinam grass; assay: Test B pre-/postemergence herbicide test; format: in vivo, Urochloa decumbens
Procedure, shortened: as §2

[15] = tested on: ducksalad; assay: Test B flooded paddy test; format: in vivo, Heteranthera limosa; settings: 1000 g ai/ha, visual rating, scale 0 to 100 (0 no effect, 100 complete control), 13 to 15 days
Procedure, shortened: as §3

[16] = 500 g ai/ha, visual rating 0-100, 0 no effect, 100 complete control, preemergence
[17] = postemergence, 125 g ai/ha, visual rating, scale 0 (no effect) to 100 (complete control)
[18] = postemergence, 500 g ai/ha, visual rating, scale 0 (no effect) to 100 (complete control)
[19] = preemergence, 125 g ai/ha, 0 to 100 scale, 0 is no effect, 100 is complete control
[20] = postemergence, 125 g ai/ha, visual rating
[21] = postemergence, 500 g ai/ha, visual rating
[22] = 125 g ai/ha, 0 = no effect, 100 = complete control, preemergence
[23] = Postemergence, 125 g ai/ha, scale 0 (no effect) to 100 (complete control)
[24] = Postemergence, 500 g ai/ha, visual rating after 13 to 15 days, scale 0 (no effect) to 100 (complete control)
[25] = Preemergence, 500 g ai/ha, scale 0 to 100
[26] = Postemergence, 500 g ai/ha, visual rating after 13 to 15 days

CCNC(=O)c1cccc(NC(=O)c2cc(C(C)(C)C)nn2CC)n1 [Compound 144]
Plant response rating, Morningglory [1, 16]: 100
Morningglory plant response rating [1, 17]: 50
Morningglory plant response rating [1, 18]: 80
Plant response rating, Morningglory [1, 19]: 100
Plant response rating, Corn [2, 16]: 10
Corn plant response rating [2, 17]: 20
Corn plant response rating [2, 18]: 30
Plant response rating, Corn [2, 19]: 10
Rice plant response rating [3]: 70
Plant response rating, Barnyardgrass [4, 16]: 100
Barnyardgrass plant response rating [4, 17]: 70
Barnyardgrass plant response rating [4, 18]: 80
Plant response rating, Barnyardgrass [4, 19]: 90
Plant response rating, Cocklebur [5, 16]: 20
Cocklebur plant response rating [5, 17]: 30
Cocklebur plant response rating [5, 18]: 100
Plant response rating, Cocklebur [5, 19]: 10
Oat, Wild plant response rating [6, 20]: 20
Oat, Wild plant response rating [6, 21]: 50
Plant response rating, Lambsquarters [7, 16]: 100
Lambsquarters plant response rating [7, 17]: 90
Lambsquarters plant response rating [7, 18]: 90
Plant response rating, Lambsquarters [7, 19]: 100
Plant response rating, Pigweed [8, 16]: 100
Pigweed plant response rating [8, 17]: 100
Pigweed plant response rating [8, 18]: 100
Plant response rating, Pigweed [8, 19]: 100
Plant response rating, Foxtail, Giant [9, 16]: 100
Foxtail, Giant plant response rating [9, 17]: 40
Foxtail, Giant plant response rating [9, 18]: 90
Plant response rating, Foxtail, Giant [9, 19]: 100
Plant response rating, Velvetleaf [10, 16]: 100
Velvetleaf plant response rating [10, 17]: 80
Velvetleaf plant response rating [10, 18]: 100
Plant response rating, Velvetleaf [10, 19]: 100
Wheat plant response rating ([11]; 500 g ai/ha): 30
Barnyardgrass plant response rating [12]: 80
Plant response rating, Crabgrass, Large [13, 16]: 100
Crabgrass, Large plant response rating [13, 17]: 30
Crabgrass, Large plant response rating [13, 18]: 100
Plant response rating, Crabgrass, Large [13, 19]: 80
Plant response rating, Surinam Grass [14, 16]: 100
Surinam Grass plant response rating [14, 17]: 60
Surinam Grass plant response rating [14, 18]: 90
Plant response rating, Surinam Grass [14, 19]: 60
Ducksalad plant response rating [15]: 90

CCc1nc(C(C)(C)C)sc1C(=O)Nc1cccc(C(=O)NCC2CC2)c1 [Compound 212]
Morningglory plant response rating (0 to 100 scale) [1, 22]: 0
Plant response rating, Morningglory [1, 16]: 60
Morningglory plant response rating [1, 17]: 10
Morningglory plant response rating [1, 18]: 50
Corn plant response rating (0 to 100 scale) [2, 22]: 10
Plant response rating, Corn [2, 16]: 30
Corn plant response rating [2, 17]: 20
Corn plant response rating [2, 18]: 40
Rice plant response rating [3]: 70
Barnyardgrass plant response rating (0 to 100 scale) [4, 22]: 80
Plant response rating, Barnyardgrass [4, 16]: 90
Barnyardgrass plant response rating [4, 17]: 10
Barnyardgrass plant response rating [4, 18]: 20
Cocklebur plant response rating (0 to 100 scale) [5, 22]: 0
Plant response rating, Cocklebur [5, 16]: 50
Cocklebur plant response rating [5, 17]: 80
Cocklebur plant response rating [5, 18]: 90
Oat, Wild plant response rating [6, 20]: 20
Oat, Wild plant response rating [6, 21]: 20
Lambsquarters plant response rating (0 to 100 scale) [7, 22]: 100
Plant response rating, Lambsquarters [7, 16]: 100
Lambsquarters plant response rating [7, 17]: 90
Lambsquarters plant response rating [7, 18]: 100
Pigweed plant response rating (0 to 100 scale) [8, 22]: 100
Plant response rating, Pigweed [8, 16]: 100
Pigweed plant response rating [8, 17]: 60
Pigweed plant response rating [8, 18]: 90
Foxtail, Giant plant response rating (0 to 100 scale) [9, 22]: 70
Plant response rating, Foxtail, Giant [9, 16]: 100
Foxtail, Giant plant response rating [9, 17]: 10
Foxtail, Giant plant response rating [9, 18]: 40
Velvetleaf plant response rating (0 to 100 scale) [10, 22]: 10
Plant response rating, Velvetleaf [10, 16]: 80
Velvetleaf plant response rating [10, 17]: 50
Velvetleaf plant response rating [10, 18]: 70
Wheat plant response rating ([11]; 125 g ai/ha): 10
Wheat plant response rating ([11]; 500 g ai/ha): 20
Barnyardgrass plant response rating [12]: 50
Crabgrass, Large plant response rating (0 to 100 scale) [13, 22]: 60
Plant response rating, Crabgrass, Large [13, 16]: 100
Crabgrass, Large plant response rating [13, 17]: 10
Crabgrass, Large plant response rating [13, 18]: 10
Surinam Grass plant response rating (0 to 100 scale) [14, 22]: 50
Plant response rating, Surinam Grass [14, 16]: 70
Surinam Grass plant response rating [14, 17]: 30
Surinam Grass plant response rating [14, 18]: 60
Ducksalad plant response rating [15]: 80

CCn1nc(C(C)(C)C)cc1C(=O)Nc1cccc(C(=O)NCCF)c1 [Compound 45]
Morningglory plant response rating [1, 23]: 40
Plant response rating, Morningglory [1, 24]: 90
Morningglory plant response rating [1, 25]: 30
Plant response rating, Morningglory [1, 19]: 10
Corn plant response rating [2, 23]: 20
Plant response rating, Corn [2, 24]: 30
Corn plant response rating [2, 25]: 30
Rice plant response rating [3]: 70
Barnyardgrass plant response rating [4, 23]: 20
Plant response rating, Barnyardgrass [4, 24]: 30
Barnyardgrass plant response rating [4, 25]: 100
Cocklebur plant response rating [5, 23]: 20
Plant response rating, Cocklebur [5, 24]: 80
Cocklebur plant response rating [5, 25]: 80
Oat, Wild plant response rating ([6]; Postemergence, 125 g ai/ha): 0
Plant response rating, Oat, Wild [6, 26]: 20
Lambsquarters plant response rating [7, 23]: 80
Plant response rating, Lambsquarters [7, 24]: 90
Lambsquarters plant response rating [7, 25]: 100
Plant response rating, Lambsquarters [7, 19]: 100
Plant response rating, Pigweed [8, 24]: 100
Pigweed plant response rating [8, 25]: 100
Plant response rating, Pigweed [8, 19]: 100
Foxtail, Giant plant response rating [9, 23]: 20
Plant response rating, Foxtail, Giant [9, 24]: 30
Foxtail, Giant plant response rating [9, 25]: 100
Plant response rating, Foxtail, Giant [9, 19]: 10
Plant response rating, Velvetleaf [10, 24]: 70
Velvetleaf plant response rating [10, 25]: 100
Plant response rating, Velvetleaf [10, 19]: 20
Plant response rating, Wheat [11, 26]: 30
Barnyardgrass plant response rating [12]: 80
Crabgrass, Large plant response rating [13, 23]: 30
Plant response rating, Crabgrass, Large [13, 24]: 30
Crabgrass, Large plant response rating [13, 25]: 90
Plant response rating, Surinam Grass [14, 24]: 30
Surinam Grass plant response rating [14, 25]: 50
Plant response rating, Surinam Grass [14, 19]: 20
Ducksalad plant response rating [15]: 80
